Source: patent US20230203021A1, “GLP-1 RECEPTOR AGONIST, PHARMACEUTICAL COMPOSITION COMPRISING SAME, AND METHOD FOR PREPARING SAME” (LG CHEM, LTD., priority 2020, published 2023)

Target: T1, hGLP-1R (Homo sapiens, UniProt P43220)
T1 construct: expressed in transfected cells; host or cells: CHO-K1
Assay: Measurement of activity of GLP-1R agonist (cell-based luciferase assay), CHO-K1/hGLP-1R/CRE-luciferase cell line
Settings: GLP-1R activity; CHO-K1/hGLP-1R/CRE-luciferase cells, 9 concentrations, four hours of incubation, Bright-Glo luminescence
Method: 15,000 cells of a CHO-K1/hGLP-1R/CRE-luciferase cell line were seeded in a 96-well plate. A medium used herein was Ham’s F-12 Nutrient medium. The cells were incubated for 18 hours in a 5% CO2 incubator which was maintained at 37° C., and then treated with drugs. Each drug dispensed at 9 different concentrations was dissolved in a DMEM/F-12 + 1% FBS medium, and the cell line was treated with each of 100 µl thereof. After four hours of incubation, a Bright-Glo® luciferase assay system kit was used to add 30 µl of an assay reagent per well. A plate was stored at room temperature for 15 minutes, and then luminescence was measured using a SpectraMax M5 reader.

T1 sequence (P43220 24-463): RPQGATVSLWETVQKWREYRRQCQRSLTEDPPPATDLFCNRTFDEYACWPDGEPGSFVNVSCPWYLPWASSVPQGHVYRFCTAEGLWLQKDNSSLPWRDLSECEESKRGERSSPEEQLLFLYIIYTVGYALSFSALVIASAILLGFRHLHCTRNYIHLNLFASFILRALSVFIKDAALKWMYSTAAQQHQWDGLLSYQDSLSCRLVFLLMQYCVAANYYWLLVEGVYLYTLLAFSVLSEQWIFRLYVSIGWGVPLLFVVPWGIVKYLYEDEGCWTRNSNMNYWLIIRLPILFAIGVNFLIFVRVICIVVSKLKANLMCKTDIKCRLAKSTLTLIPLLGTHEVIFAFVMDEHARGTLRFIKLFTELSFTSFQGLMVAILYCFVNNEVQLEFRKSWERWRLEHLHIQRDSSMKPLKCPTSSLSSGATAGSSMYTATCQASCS

Row | SMILES | EC50
1 | O=C(O)c1ccc2nc(Cc3ccc(-c4cccc(OCc5ccc(Cl)cc5F)n4)cc3)n(CC3CCCO3)c2c1 (stereo not drawn) [Example 1, 2-(4-(6-((4-chloro-2-fluorobenzyl)oxy)pyridin-2-yl)benzyl)-1-((tetrahydrofuran-2-yl)methyl)-1H-benzo[d]imidazole-6-carboxylic acid] | 0.205 nM
2 | O=C(O)c1ccc2nc(Cc3ccc(-c4cccc(OCc5ccc(Cl)cc5F)n4)cc3)n(C[C@@H]3CCO3)c2c1 [Example 2, (S)-2-(4-(6-((4-chloro-2-fluorobenzyl)oxy)pyridin-2-yl)benzyl)-1-(oxetan-2-ylmethyl)-1H-benzo[d]imidazole-6-carboxylic acid] | 0.007 nM
3 | CCn1cncc1Cn1c(Cc2ccc(-c3cccc(OCc4ccc(C#N)cc4F)n3)cc2)nc2ccc(C(=O)O)cc21 [Example 4, 2-(4-(6-((4-cyano-2-fluorobenzyl)oxy)pyridin-2-yl)benzyl)-1-((1-ethyl-1H-imidazol-5-yl)methyl)-1H-benzo[d]imidazole-6-carboxylic acid] | 0.015 nM
4 | CCn1cncc1Cn1c(Oc2ccc(-c3cccc(OCc4ccc(C#N)cc4F)n3)cc2)nc2ccc(C(=O)O)cc21 [Example 5, 2-(4-(6-((4-cyano-2-fluorobenzyl)oxy)pyridin-2-yl)phenoxy)-1-((1-ethyl-1H-imidazol-5-yl)methyl)-1H-benzo[d]imidazole-6-carboxylic acid] | 0.016 nM
5 | N#Cc1ccc(COc2cccc(-c3ccc(Oc4nc5ccc(C(=O)O)cc5n4C[C@@H]4CCO4)cc3)n2)c(F)c1 [Example 6, (S)-2-(4-(6-((4-cyano-2-fluorobenzyl)oxy)pyridin-2-yl)phenoxy)-1-(oxetan-2-ylmethyl)-1H-benzo[d]imidazole-6-carboxylic acid] | 21 nM
6 | O=C(O)c1ccc2nc(Oc3ccc(-c4cccc(OCc5ccc(Cl)cc5F)n4)cc3)n(C[C@@H]3CCO3)c2c1 [Example 7, (S)-2-(4-(6-((4-chloro-2-fluorobenzyl)oxy)pyridin-2-yl)phenoxy)-1-(oxetan-2-ylmethyl)-1H-benzo[d]imidazole-6-carboxylic acid] | 0.066 nM
7 | N#Cc1ccc(COc2cccc(-c3ccc(Oc4nc5ccc(C(=O)O)cc5n4Cc4cnco4)cc3)n2)c(F)c1 [Example 9, 2-(4-(6-((4-cyano-2-fluorobenzyl)oxy)pyridin-2-yl)phenoxy)-1-(oxazol-5-ylmethyl)-1H-benzo[d]imidazole-6-carboxylic acid] | 0.7 nM
8 | O=C(O)c1ccc2nc(Cc3ccc(-c4cccc(OCc5ccc(Cl)cc5F)n4)cc3F)n(Cc3cnco3)c2c1 [Example 11, 2-(4-(6-((4-chloro-2-fluorobenzyl)oxy)pyridin-2-yl)-2-fluorobenzyl)-1-(oxazol-5-ylmethyl)-1H-benzo[d]imidazole-6-carboxylic acid] | 0.0746 nM
9 | O=C(O)c1ccc2nc(Cc3ccc(-c4cccc(OCc5ccc(Cl)cc5F)n4)cc3)n(C[C@@H]3CCCO3)c2c1 [Example 12, (S)-2-(4-(6-((4-chloro-2-fluorobenzyl)oxy)pyridin-2-yl)benzyl)-1-((tetrahydrofuran-2-yl)methyl)-1H-benzo[d]imidazole-6-carboxylic acid] | 0.0706 nM
10 | O=C(O)c1ccc2nc(Cc3ccc(-c4cccc(OCc5ccc(Cl)cc5F)n4)cc3)n(C[C@H]3CCCO3)c2c1 [Example 13, (R)-2-(4-(6-((4-chloro-2-fluorobenzyl)oxy)pyridin-2-yl)benzyl)-1-((tetrahydrofuran-2-yl)methyl)-1H-benzo[d]imidazole-6-carboxylic acid] | 2.02 nM
11 | O=C(O)c1ccc2nc(Cc3ccc(-c4cccc(OCc5ccc(Cl)cc5F)n4)cc3)n(CC3CCCCO3)c2c1 (stereo not drawn) [Example 14, 2-(4-(6-((4-chloro-2-fluorobenzyl)oxy)pyridin-2-yl)benzyl)-1-((tetrahydro-2H-pyran-2-yl)methyl)-1H-benzo[d]imidazole-6-carboxylic acid] | > 80 nM
12 | O=C(O)c1ccc2nc(Cc3ccc(-c4cccc(OCc5ccc(Cl)cc5F)n4)c(F)c3)n(C[C@@H]3CCO3)c2c1 [Example 15, (S)-2-(4-(6-((4-chloro-2-fluorobenzyl)oxy)pyridin-2-yl)-3-fluorobenzyl)-1-(oxetan-2-ylmethyl)-1H-benzo[d]imidazole-6-carboxylic acid] | 0.0035 nM
13 | O=C(O)c1ccc2nc(Cc3ccc(-c4cccc(OCc5ccc(C(F)(F)F)cc5F)n4)cc3)n(C[C@@H]3CCO3)c2c1 [Example 16, (S)-2-(4-(6-((2-fluoro-4-(trifluoromethyl)benzyl)oxy)pyridin-2-yl)benzyl)-1-(oxetan-2-ylmethyl)-1H-benzo[d]imidazole-6-carboxylic acid] | > 80 nM
14 | O=C(O)c1ccc2nc(Oc3ccc(-c4cccc(OCc5ccc(Cl)cc5F)n4)cc3F)n(C[C@@H]3CCO3)c2c1 [Example 17, (S)-2-(4-(6-((4-chloro-2-fluorobenzyl)oxy)pyridin-2-yl)-2-fluorophenoxy)-1-(oxetan-2-ylmethyl)-1H-benzo[d]imidazole-6-carboxylic acid] | 0.357 nM
15 | O=C(O)c1ccc2nc(Oc3ccc(-c4cccc(OCc5ccc(Cl)cc5F)n4)cc3Cl)n(C[C@@H]3CCO3)c2c1 [Example 18, (S)-2-(2-chloro-4-(6-((4-chloro-2-fluorobenzyl)oxy)pyridin-2-yl)phenoxy)-1-(oxetan-2-ylmethyl)-1H-benzo[d]imidazol-6-carboxylic acid] | 0.438 nM
16 | O=C(O)c1ccc2nc(Oc3c(F)cc(-c4cccc(OCc5ccc(Cl)cc5F)n4)cc3F)n(C[C@@H]3CCO3)c2c1 [Example 19, (S)-2-(4-(6-((4-chloro-2-fluorobenzyl)oxy)pyridin-2-yl)-2,6-difluorophenoxy)-1-(oxetan-2-ylmethyl)-1H-benzo[d]imidazole-6-carboxylic acid] | 1.33 nM
17 | O=C(O)c1ccc2nc(Oc3ccc(-c4cccc(OCc5ccc(Cl)cc5F)n4)c(F)c3)n(C[C@@H]3CCO3)c2c1 [Example 20, (S)-2-(4-(6-((4-chloro-2-fluorobenzyl)oxy)pyridin-2-yl)-3-fluorophenoxy)-1-(oxetan-2-ylmethyl)-1H-benzo[d]imidazole-6-carboxylic acid] | 0.121 nM
18 | O=C(O)c1ccc2nc(Cc3ccc(-c4cccc(OCc5ccc(C(F)(F)F)cc5F)n4)cc3)n(Cc3cnco3)c2c1 [Example 21, 2-(4-(6-((2-fluoro-4-(trifluoromethyl)benzyl)oxy)pyridin-2-yl)benzyl)-1-(oxazol-5-ylmethyl)-1H-benzo[d]imidazole-6-carboxylic acid] | 0.317 nM
19 | O=C(O)c1ccc2nc(Cc3ccc(-c4cccc(OCc5ccc(Cl)cc5F)n4)c(Cl)c3)n(Cc3cnco3)c2c1 [Example 22, 2-(3-chloro-4-(6-((4-chloro-2-fluorobenzyl)oxy)pyridin-2-yl)benzyl)-1-(oxazol-5-ylmethyl)-1H-benzo[d]imidazole-6-carboxylic acid] | 0.635 nM
20 | O=C(O)c1ccc2nc(Cc3ccc(-c4cccc(OCc5ccc(Cl)cc5F)n4)c(F)c3)n(Cc3cnco3)c2c1 [Example 23, 2-(4-(6-((4-chloro-2-fluorobenzyl)oxy)pyridin-2-yl)-3-fluorobenzyl)-1-(oxazol-5-ylmethyl)-1H-benzo[d]imidazole-6-carboxylic acid] | 0.061 nM
21 | CCCn1cnnc1Cn1c(Cc2ccc(-c3cccc(OCc4ccc(Cl)cc4F)n3)cc2)nc2ccc(C(=O)O)cc21 [Example 24, 2-(4-(6-((4-chloro-2-fluorobenzyl)oxy)pyridin-2-yl)benzyl)-1-((4-propyl-4H-1,2,4-triazol-3-yl)methyl)-1H-benzo[d]imidazole-6-carboxylic acid] | 0.167 nM
22 | CCCn1cnnc1Cn1c(Cc2ccc(-c3cccc(OCc4ccc(C(F)(F)F)cc4F)n3)cc2)nc2ccc(C(=O)O)cc21 [Example 25, 2-(4-(6-((2-fluoro-4-(trifluoromethyl)benzyl)oxy)pyridin-2-yl)benzyl)-1-((4-propyl-4H-1,2,4-triazol-3-yl)methyl)-1H-benzo[d]imidazole-6-carboxylic acid] | 0.402 nM
23 | CCCn1cnnc1Cn1c(Cc2ccc(-c3cccc(OCc4ccc(Cl)cc4F)n3)c(Cl)c2)nc2ccc(C(=O)O)cc21 [Example 26, 2-(3-chloro-4-(6-((4-chloro-2-fluorobenzyl)oxy)pyridin-2-yl)benzyl)-1-((4-propyl-4H-1,2,4-triazol-3-yl)methyl)-1H-benzo[d]imidazole-6-carboxylic acid] | 0.775 nM
24 | CCCn1cnnc1Cn1c(Cc2ccc(-c3cccc(OCc4ccc(Cl)cc4F)n3)c(F)c2)nc2ccc(C(=O)O)cc21 [Example 27, 2-(4-(6-((4-chloro-2-fluorobenzyl)oxy)pyridin-2-yl)-3-fluorobenzyl)-1-((4-propyl-4H-1,2,4-triazol-3-yl)methyl)-1H-benzo[d]imidazole-6-carboxylic acid] | 0.13 nM
25 | O=C(O)c1ccc2nc(Oc3ccc(-c4cccc(OCc5ccc(Cl)cc5F)n4)cc3)n(CC3CCCO3)c2c1 (stereo not drawn) [Example 28, 2-(4-(6-((4-chloro-2-fluorobenzyl)oxy)pyridin-2-yl)phenoxy)-1-((tetrahydrofuran-2-yl)methyl)-1H-benzo[d]imidazole-6-carboxylic acid] | 1.12 nM
26 | O=C(O)c1ccc2nc(Cc3ccc(-c4cccc(OCc5ccc(C(F)(F)F)cc5F)n4)cc3)n(C[C@@H]3CCCO3)c2c1 [Example 29, (S)-2-(4-(6-((2-fluoro-4-(trifluoromethyl)benzyl)oxy)pyridin-2-yl)benzyl)-1-((tetrahydrofuran-2-yl)methyl)-1H-benzo[d]imidazole-6-carboxylic acid] | 0.208 nM
27 | O=C(O)c1ccc2nc(Cc3ccc(-c4cccc(OCc5ccc(Cl)cc5F)n4)cc3F)n(C[C@@H]3CCCO3)c2c1 [Example 30, (S)-2-(4-(6-((4-chloro-2-fluorobenzyl)oxy)pyridin-2-yl)-2-fluorobenzyl)-1-((tetrahydrofuran-2-yl)methyl)-1H-benzo[d]imidazole-6-carboxylic acid] | 0.0327 nM
